Values of other authors as cited in PMC11984905, “Chiral Switch of Gadopiclenol: New Standards in MRI Probes” (Advanced Science, 2025).
Where two headings read alike, the source gives them in different places. Marks after values point to notes of the source that are not given here.

What was measured:
[1] = 0.1 M KCl; cited from earlier work
[2] = 0.1 M KCl; cited from earlier work; remark: listed apart in the source
[3] = 0.1 M KCl; cited from earlier work; remark: listed apart in the source
[4] = cited from earlier work; for pGd: [Gd^3+]tot = 1 µM, [L]tot = 10 µM; for pGd / logK^c GdL: pH 7.4, calculated from literature constants
[5] = pH 7.4, 0.15 M NaCl, 25 °C; cited from earlier work
[6] = 25 °C, cited from earlier work
[7] = set-up: method as in earlier work; conditions: stability constant of the Na+ complex; cited from earlier work

## O=C(O)CN1CCN(CC(=O)O)CCN(CC(=O)O)CCN(CC(=O)O)CC1 [DOTA]
[1]
  logK CuL: 22.72
  logKCuH2L: 3.92
  logKCuHL: 4.45
[2]
  logK CaL: 16.37
  logKCaHL: 3.60
[3]
  logK ZnL: 18.7
  logKZnH2L: 3.96
  logKZnHL: 5.33
[4]; 0.1 M KCl
  logKGdHL: 1.15
[4]; 0.1 M Me4NCl, 25 °C
  logK GdL: 25.6
  pGd: 20.24
  logK^c GdL: 19.29
[4]; 0.1 M NaCl, 25 °C
  logK GdL: 24.7
  pGd: 22.09
  logK^c GdL: 21.14
[4]; diprotonated out-of-cage intermediate, 0.15 M NaCl, 25 °C
  *logKGd(H2L): 6.07^f)
[5]
  k d at pH = 7.4: 7.3 × 10^−14 s^−1
[6]; 0.1 M KCl
  logK1^H: 11.14
  logK2^H: 9.69
  logK3^H: 4.85
  logK4^H: 3.95
  ΣlogKi^H: 29.63
[6]; 0.1 M Me4NCl
  logK1^H: 11.45
  logK2^H: 9.64
  logK3^H: 4.60
  logK4^H: 4.11
  logK5^H: 2.29
  ΣlogKi^H: 32.09
[6]; 0.15 M NaCl
  logK1^H: 9.14
  logK2^H: 9.21
  logK3^H: 4.48
  logK4^H: 4.03
  logK5^H: 1.99^d)
  ΣlogKi^H: 28.85
[7]
  logKNa(L): 4.38
